Key:
Alternaria solani = Alternaria solani / tomato / leaf disc (early blight); format: in vivo; settings: foliar, tomato leaf disks, sprayed 2 days before inoculation, compared to untreated control
Experimental: Example B1: Alternaria solani/Tomato/Leaf Disc (Early Blight) Tomato leaf disks cv. Baby are placed on agar in multiwell plates (24-well format) and sprayed with the formulated test compound diluted in water. The leaf disks are inoculated with a spore suspension of the fungus 2 days after application. The inoculated leaf disks are incubated at 23° C./21° C.

[1] = tested on: Mycosphaerella graminicola (Septoria tritici); assay: Mycosphaerella graminicola (Septoria tritici) / liquid culture (Septoria blotch); format: cell-based; settings: Zymoseptoria tritici, growth inhibition photometrically 4-5 days after application, read-out: control of Mycosphaerella graminicola
How it was run: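 Conidia suspended in potato dextrose broth and added to test compound supplied in DMSO in 96-well plates. Incubated at 24 °C, and growth inhibition read photometrically 4-5 days after application.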

[2] = tested on: Blumeria graminis f. sp. tritici (Erysiphe graminis f. sp. tritici); assay: Blumeria graminis f. sp. tritici / wheat / leaf disc preventative (powdery mildew on wheat); format: in vivo; settings: foliar, wheat leaf segments, inoculated 1 day after application
Experimental: Example B4: Blumeria graminis f. Sp. Tritici (Erysiphe graminis f. Sp. Tritici)/Wheat/Leaf Disc Preventative (Powdery Mildew on Wheat) Wheat leaf segments cv. Kanzler are placed on agar in a multiwell plate (24-well format) and sprayed with the formulated test compound diluted in water. The leaf disks are inoculated by shaking powdery mildew infected plants above the test plates 1 day after application. The inoculated leaf disks are incubated at 20° C. and 60% rh under a light regime of 24 h darkness followed by 12 h light/12 h darkness in a climate chamber and the activity of a compound is assessed as percent disease control compared to untreated when an appropriate level of disease damage appears on untreated check leaf segments (6-8 days after application).

[3] = tested on: Botryotinia fuckeliana (Botrytis cinerea); assay: Botryotinia fuckeliana (Botrytis cinerea) / liquid culture (gray mould); format: cell-based; settings: growth inhibition photometrically 3-4 days after application, read-out: control of Botryotinia fuckeliana
How it was run: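 Conidia suspended in Vogels broth and added to compound dispensed from DMSO. Incubated at 24°C, with growth inhibition measured photometrically 3–4 days later.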

[4] = tested on: Glomerella lagenarium (Colletotrichum lagenarium); assay: Glomerella lagenarium (Colletotrichum lagenarium) / liquid culture (anthracnose); format: cell-based; settings: Colletotrichum orbiculare, growth inhibition photometrically 3-4 days after application, read-out: control of Glomerella lagenarium
Experimental: (§1) Example B3: Glomerella lagenarium (Colletotrichum lagenarium)/Liquid Culture (Anthracnose) Conidia of the fungus from cryogenic storage are directly mixed into nutrient broth (PDB potato dextrose broth). After placing a (DMSO) solution of test compound into a microtiter plate (96-well format), the nutrient broth containing the fungal spores is added. The test plates are incubated at 24° C. and the inhibition of growth is measured photometrically 3-4 days after application.

[5] = tested on: Phaeosphaeria nodorum (Septoria nodorum); assay: Phaeosphaeria nodorum (Septoria nodorum) / wheat / leaf disc preventative (glume blotch); format: in vivo; settings: Parastagonospora nodorum, foliar, wheat leaf segments, inoculated 2 days after application
Experimental: Example B8: Phaeosphaeria nodorum (Septoria nodorum)/Wheat/Leaf Disc Preventative (Glume Blotch) Wheat leaf segments cv. Kanzler are placed on agar in a multiwell plate (24-well format) and sprayed with the formulated test compound diluted in water. The leaf disks are inoculated with a spore suspension of the fungus 2 days after application. The inoculated test leaf disks are incubated at 20° C. and 75% rh under a light regime of 12 h light/12 h darkness in a climate cabinet and the activity of a compound is assessed as percent disease control compared to untreated when an appropriate level of disease damage appears in untreated check leaf disks (5-7 days after application).

[6] = tested on: Mycosphaerella arachidis (Cercospora arachidicola); assay: Mycosphaerella arachidis (Cercospora arachidicola) / liquid culture (early leaf spot); format: cell-based; settings: growth inhibition photometrically 4-5 days after application, read-out: control of Mycosphaerella arachidis
Experimental: as §1, with “B10: Mycosphaerella arachidis (Cercospora arachidicola)/Liquid” for “B3: Glomerella lagenarium (Colletotrichum lagenarium)/Liquid”, “(Early Leaf Spot)” for “(Anthracnose)”, “determined” for “measured”, “4-5” for “3-4”

Fusarium culmorum = assay: microbe, parasite or virus in culture; format: cell-based; settings: read-out: control of Fusarium culmorum
[7] = tested on: Monographella nivalis (Microdochium nivale); assay: Monographella nivalis (Microdochium nivale) / liquid culture (foot rot cereals); format: cell-based; settings: growth inhibition photometrically 4-5 days after application, read-out: control of Monographella nivalis
How it was run: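 Fungal conidia mixed directly into potato dextrose broth and added to test compound delivered in DMSO. Incubated at 24° C; growth inhibition read photometrically 4-5 days after application.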

Pyrenophora teres = Pyrenophora teres / barley / leaf disc preventative (net blotch); format: in vivo; settings: foliar, barley leaf segments, inoculated 2 days after application
Experimental: Example B14: Pyrenophora teres/Barley/Leaf Disc Preventative (Net Blotch) Barley leaf segments cv. Hasso are placed on agar in a multiwell plate (24-well format) and sprayed with the formulated test compound diluted in water. The leaf segments are inoculated with a spore suspension of the fungus 2 days after application. The inoculated leaf segments are incubated at 20° C. and 65% rh under a light regime of 12 h light/12 h darkness in a climate cabinet and the activity of a compound is assessed as disease control compared to untreated when an appropriate level of disease damage appears in untreated check leaf segments (5-7 days after application).

Sclerotinia sclerotiorum = Sclerotinia sclerotiorum / liquid culture (cottony rot); format: cell-based; settings: growth inhibition photometrically 3-4 days after application, read-out: control of Sclerotinia sclerotiorum
Experimental: Example B15: Sclerotinia sclerotiorum/Liquid Culture (Cottony Rot) Mycelia fragments of a newly grown liquid culture of the fungus are directly mixed into nutrient broth (PDB potato dextrose broth). After placing a (DMSO) solution of test compound into a microtiter plate (96-well format) the nutrient broth containing the fungal material is added. The test plates are incubated at 24° C. and the inhibition of growth is determined photometrically 3-4 days after application.

| Compound | pest or weed control at 200 ppm (Alternaria solani) | inhibition of growth at 20 ppm [1] | pest or weed control at 200 ppm [2] | inhibition of growth at 20 ppm [3] | inhibition of growth at 20 ppm [4] | pest or weed control at 200 ppm [5] | inhibition of growth at 20 ppm [6] | inhibition of growth at 20 ppm (Fusarium culmorum) | inhibition of growth at 20 ppm [7] | pest or weed control at 200 ppm (Pyrenophora teres) | inhibition of growth at 20 ppm (Sclerotinia sclerotiorum) | melting point |
| --- | --- | --- | --- | --- | --- | --- | --- | --- | --- | --- | --- | --- |
| Cn1ncc(C(C)(CNC(=O)c2nnc(-c3ccc(F)cc3F)s2)c2cccc(Cl)n2)c1Cl (centres unmarked) [Compound P-25, N-[2-(5-chloro-1-methyl-pyrazol-4-yl)-2-(6-chloro-2-pyridyl)propyl]-5-(2,4-difluorophenyl)-1,3,4-thiadiazole-2-carboxamide] | ≥ 80% | ≥ 80% | ≥ 80% | ≥ 80% | ≥ 80% | ≥ 80% | ≥ 80% | ≥ 80% | ≥ 80% | ≥ 80% | ≥ 80% | – |
| COc1cnc(Cl)nc1C(C)(CNC(=O)c1cc(-c2ccc(F)cc2F)on1)c1cnn(C)c1 (centres unmarked) [Compound P-65, N-[2-(2-chloro-5-methoxy-pyrimidin-4-yl)-2-(1-methylpyrazol-4-yl)propyl]-5-(2,4-difluorophenyl) isoxazole-3-carboxamide] | – | – | – | – | – | – | – | – | – | – | – | 145 to 151 °C |
| Cn1cc(C(C)(CNC(=O)c2nc(-c3ccc(F)cc3F)no2)c2cccc(Cl)n2)cn1 (centres unmarked) [Compound P-84, N-[2-(6-chloro-2-pyridyl)-2-(1-methylpyrazol-4-yl)propyl]-3-(2,4-difluorophenyl)-1,2,4-oxadiazole-5-carboxamide] | ≥ 80% | ≥ 80% | ≥ 80% | ≥ 80% | ≥ 80% | ≥ 80% | ≥ 80% | ≥ 80% | ≥ 80% | ≥ 80% | ≥ 80% | – |
| Cn1cc(C(C)(CNC(=O)c2nnc(-c3ccc(F)cc3F)o2)c2cccc(Cl)n2)cn1 (centres unmarked) [Compound P-101, N-[2-(6-chloro-2-pyridyl)-2-(1-methylpyrazol-4-yl)propyl]-5-(2,4-difluorophenyl)-1,3,4-oxadiazole-2-carboxamide] | ≥ 80% | ≥ 80% | ≥ 80% | ≥ 80% | ≥ 80% | ≥ 80% | ≥ 80% | – | ≥ 80% | ≥ 80% | ≥ 80% | – |
| Cn1cc(C(C)(CNC(=O)c2cc(-c3ccc(F)cc3F)on2)c2cccc(C3CC3)n2)cn1 (centres unmarked) [Compound P-102, N-[2-(6-cyclopropyl-2-pyridyl)-2-(1-methylpyrazol-4-yl)propyl]-5-(2,4-difluorophenyl) isoxazole-3-carboxamide] | – | ≥ 80% | – | ≥ 80% | ≥ 80% | ≥ 80% | ≥ 80% | ≥ 80% | ≥ 80% | ≥ 80% | ≥ 80% | – |
| Cn1ncc(C(C)(CNC(=O)c2nnc(-c3ccc(F)cc3F)s2)c2cccc(C#N)n2)c1Cl (centres unmarked) [Compound P-118, N-[2-(5-chloro-1-methyl-pyrazol-4-yl)-2-(6-cyano-2-pyridyl)propyl]-5-(2,4-difluorophenyl)-1,3,4-thiadiazole-2-carboxamide] | – | ≥ 80% | – | ≥ 80% | ≥ 80% | – | ≥ 80% | ≥ 80% | ≥ 80% | – | ≥ 80% | – |
| Cn1ncc(C(C)(CNC(=O)c2cc(-c3ccc(F)cc3F)on2)c2cccc(C#N)n2)c1Cl (centres unmarked) [Compound P-119, N-[2-(5-chloro-1-methyl-pyrazol-4-yl)-2-(6-cyano-2-pyridyl)propyl]-5-(2,4-difluorophenyl) isoxazole-3-carboxamide] | – | ≥ 80% | – | ≥ 80% | ≥ 80% | – | ≥ 80% | ≥ 80% | ≥ 80% | – | ≥ 80% | – |
